Reference: publication PMC12192727, “Strategies to Develop Na,K-ATPase-α4 Inhibitors as Male Contraceptives” (International Journal of Molecular Sciences, 2025)
In brackets after ≈: the same amount, converted by molar mass. Where two headings read alike, the source gives them in different places.

Tests used:
physchem = format: physicochemical; conditions: PBS pH 7.4
Experimental: The stock solutions of 11 and 45 were prepared in DMSO at a concentration of 30 mM, and the stock solution of the control compound was prepared in DMSO at a concentration of 30 mM. Progesterone was used as a positive control in the assay. An amount of 10 µL of stock solution of each compound was placed in order into their proper 96-well rack, followed by adding 990 µL of PBS at pH 7.4 into each vial of the capless Solubility Sample plate. This study was performed in duplicate. One stir stick was added to each vial and then sealed using a molded PTDE/SIL 96-Well Plate Cover (Pharmaron, Waltman, MA, USA). The Solubility Sample plate was transferred to the Thermomixer Comfort plate shaker and incubated at RT for 2 h with shaking at 1100 rpm. After 2 h of incubation, stir sticks were removed using a big magnet, and all samples from the Solubility Sample plate were transferred into the filter plate. All the samples were filtered using a vacuum manifold. The filtered samples were diluted with methanol. The soluble fraction (filtrate) was then analyzed by LC-MS/MS, and the compound concentration was determined using 0.3 μM standard solutions prepared from DMSO stocks. The experimental details are reported in the Supporting Information (Table S1). […]
Table S1 . Solubility Results of Test C ompound and Control C ompound in […]
Compound ID Solubility (µM)
Preparation of Stock Solutions: The stock solutions of test compounds were prepared in DMSO at the concentration of 30 mM, and the stock solution of control compound was prepared in DMSO at the concentration of 30 mM.
Progesterone was used as positive control in the assay.
Solubility Determination: 10 µL stock solution of each compound was placed in order into their proper 96-well rack, followed by adding 990 µL of PBS at pH 7.4 into each vial of the cap-less Solubility Sample plate. This study was performed in duplicate. One stir stick was added to each vial and then vials were sealed using a molded PTDE/SIL 96-Well Plate Cover. The Solubility Sample plate was transferred to the Thermomixer Comfort plate shaker and incubated at RT for 2 hours with shaking at 1100 rpm. After 2 hours incubation, stir sticks were removed using a big magnet and all samples from the Solubility Sample plate were transferred into the filter plate. All the samples were filtered by using the Vacuum Manifold. The filtered samples were diluted with methanol. The dilution factor might be changed according to the solubility value and the LC/MS signal response. To prepare 0.3 µM Standards (STD), 30 mM DMSO compound stock solutions were diluted with DMSO to 300 µM and then diluted with methanol to obtain 0.3 µM STDs. Samples were analyzed by LC-MS/MS. All calculations were carried out using Microsoft Excel. The solution filtered was analyzed and quantified against a standard of known concentration in DMSO using LC coupled with Mass spectral peak identification and quantitation. The solubility values of the test compounds were calculated as follow DF means the dilution factor
1. Chromatographic conditions
Apparatus: Triple QuadTM 5500 instrument from AB Inc (Canada) with an ESI interface Column: XSelect Hss T3 2.5µ (2.1×50 mm) Column XP coupled with preguard column Mobile phase: 0.1% formic acid in acetonitrile (A) and 0.1% formic acid in water (B) […]

mouse sperm = test: Mouse sperm total motility in vitro (CASA); format: cell-based; conditions: for Emax: Mus musculus, Sperm, 1 h, nanomolar range concentration, read-out: Maximal Motility Inhibition (%)
Experimental: To characterize the SAR of these compounds, we first evaluated their effects on total sperm motility in vitro. Sperm isolated from the cauda epididymis of mice were incubated with the test compounds in modified Whitten’s medium under non-capacitating conditions. Motility was assessed using a computer-assisted sperm analysis (CASA) system.
All experimental protocols involving animals used in this work were approved by the University of Kansas Medical Center Institutional Animal Care and Use Committee (ACUP number: 22-09-26, 10/2022). C57BL/6 mice were purchased from Harlan (Indianapolis, IN, USA). Spermatozoa were isolated from the cauda of adult mouse epididymis in Whitten’s medium, containing 100 mM NaCl, 4.7 mM KCl, 1.2 mM KH2PO4, 1.2 mM MgSO4, 5.5 mM glucose, 0.8 mM pyruvic acid, 4.8 mM lactic acid, and 40 mM Hepes, as previously described.
Spermatozoa (1 × 10^6 cells) were incubated at 37 °C in 100 μL of Whitten’s medium, with the addition of 1.7 mM CaCl2 and in the absence and presence of different amounts of the tested compounds for 60 min. Then, cells were labeled with the fluorescent nucleic acid stain SYTO 21, which allows for the tracking of the movement of the cell head. After 1 min of incubation with the dye, 5.5 μL aliquots from each sample were taken and placed into a glass cell chamber (Leja Products B.V., Nieuw-Vennep, The Netherlands). Sperm were maintained at 37 °C on a heated platform and viewed with an Olympus BX51 microscope (Olympus, Center Valley, PA, USA) through a 20× phase objective. Images of the moving sperm were captured using a CCD camera. Samples were analyzed by CASA using the Minitube SpermVision Digital Semen Evaluation system (version 3.5; Penetrating Innovations, Verona, WI, USA). An average of 200 cells/field were captured, at a rate of 30 frames per field, and a total of 10 fields in each sample were analyzed. Total sperm motility was obtained from sperm maintained in a non-capacitating medium, while for assessing the hyperactive pattern of motility, typical of sperm capacitation, cells were incubated in Whitten’s medium with the addition of 1.7 mM CaCl2, 25 mM sodium bicarbonate, and 0.5% bovine serum albumin.
(§1) Figure 2 Effect of simplified steroidal analogs on mouse sperm total motility. Sperm was isolated from the cauda epididymis and treated in the absence and presence of the indicated concentrations of each compound. After one hour of incubation, sperm motility was determined by CASA. Values are expressed as the mean ± SEM of three determinations.
as §1, with “4” for “2”, “non-steroidal small compounds” for “simplified steroidal analogs”, “1 h” for “one hour”

[1] = aqueous buffer, kinetic from dmso stock, read-out: Solubility
[2] = simplified steroid analogs, mouse sperm motility

SMILES	Solubility (physchem)	Solubility (physchem; [1]) [µM]	Emax (mouse sperm; simplified steroid analogs, mouse sperm total motility) [%]	Shape of inhibitory dose response on sperm motility (mouse sperm; mouse sperm total motility)	IC50 (mouse sperm; [2]) [nM]	IC50 (pM) (mouse sperm; [2])	Emax (mouse sperm; non-steroidal small molecules, mouse sperm total motility) [%]	IC50 (mouse sperm; non-steroidal small molecules, mouse sperm motility) [nM]
C[C@]12CC[C@H]3[C@@H](CC=C4C[C@@H](O)CC[C@@]43C)[C@@H]1CC[C@@H]2c1cn(Cc2ccccc2)nn1 [Compound 13, (3S,8S,9S,10R,13S,14S,17S)-17-(1-Benzyl-1H-1,2,3-triazol-4-yl)-10,13-dimethyl-2,3,4,7,8,9,10,11,12,13,14,15,16,17-tetradecahydro-1H-cyclopenta[a]phenanthren-3-ol]	poor	0.3 (≈ 0.129 µg/mL)	41	monotonic inhibitory response	0.024	sub-nanomolar range		
CC12CCC(=O)C=C1CCCC2n1cc(-c2ccccc2)nn1 (stereo not shown) [Compound 45, 4a-Methyl-5-(4-phenyl-1H-1,2,3-triazol-1-yl)-4,4a,5,6,7,8-hexahydronaphthalen-2(3H)-one]	good	256 (≈ 78.7 µg/mL)					~50	0.048
